Experiments:
Format in all cases: functional
Rattus norvegicus [1] = assay: Anti-inflammatory activity in Albino Rattus norvegicus (rat) assessed as inhibition of carrageenan-induced paw edema at 20 mg/kg, po administered 1 hr prior to carrageenan challenge measured after 5 hr by mercury displacement technique
Rattus norvegicus [2] = assay: Anti-inflammatory activity in Albino Rattus norvegicus (rat) assessed as inhibition of carrageenan-induced paw edema at 20 mg/kg, po administered 1 hr prior to carrageenan challenge measured after 2 hr by mercury displacement technique
Rattus norvegicus [3] = assay: Anti-inflammatory activity in Albino Rattus norvegicus (rat) assessed as inhibition of carrageenan-induced paw edema at 20 mg/kg, po administered 1 hr prior to carrageenan challenge measured after 1 hr by mercury displacement technique
Rattus norvegicus [4] = assay: Anti-inflammatory activity in Albino Rattus norvegicus (rat) assessed as inhibition of carrageenan-induced paw edema at 10 mg/kg, po administered 1 hr prior to carrageenan challenge measured after 2 hr by mercury displacement technique
Rattus norvegicus [5] = assay: Anti-inflammatory activity in Albino Rattus norvegicus (rat) assessed as inhibition of carrageenan-induced paw edema at 10 mg/kg, po administered 1 hr prior to carrageenan challenge measured after 5 hr by mercury displacement technique
Rattus norvegicus [6] = assay: Anti-inflammatory activity in Albino Rattus norvegicus (rat) assessed as inhibition of carrageenan-induced paw edema at 10 mg/kg, po administered 1 hr prior to carrageenan challenge measured after 1 hr by mercury displacement technique

Row | Structure (SMILES) | inhibition in vivo at 20 mg/kg (Rattus norvegicus [1]) | inhibition in vivo at 20 mg/kg (Rattus norvegicus [2]) | inhibition in vivo at 20 mg/kg (Rattus norvegicus [3]) | inhibition in vivo at 10 mg/kg (Rattus norvegicus [4]) | inhibition in vivo at 10 mg/kg (Rattus norvegicus [5]) | inhibition in vivo at 10 mg/kg (Rattus norvegicus [6])
1 | O=[N+]([O-])c1ccc(/C=N/NC(=S)Nn2c(S)nnc2-c2ccncc2)cc1 | 41.5% | 34.5% | 14.3% |  |  | 
2 | S=C(N/N=C/c1ccccc1Cl)Nn1c(S)nnc1-c1ccncc1 | 67.3% | 62.5% | 39.1% |  |  | 
3 | COc1cc(/C=N/NC(=S)Nn2c(S)nnc2-c2ccncc2)cc(OC)c1OC | 61.4% | 52.9% | 36.2% |  |  | 
4 | COc1ccc(/C=N/NC(=S)Nn2c(S)nnc2-c2ccncc2)cc1O | 48.4% | 44.4% | 28% |  |  | 
5 | COc1ccc2c(c1)c(CC(=O)O)c(C)n2C(=O)c1ccc(Cl)cc1 [INDOMETHACIN] |  |  |  | 73% | 84% | 52%
6 | S=C(N/N=C/c1ccc(Cl)cc1)Nn1c(S)nnc1-c1ccncc1 | 76.9% | 69.6% | 45.5% |  |  | 

— ChEMBL document CHEMBL3044575, “Synthesis, anti-inflammatory activity, and QSAR study of some Schiff bases derived from 5-mercapto-3-(4-pyridyl)-4H-1,2,4-triazol-4-yl-thiosemicarbazide” (2013)
